Data on nine compounds can be found in patent US8193191B2, “Urotensin II receptor antagonists” (Janssen Pharmaceutica N.V., priority 2006, dated 2012).

The term Ki denotes the equilibrium dissociation constant of an inhibitor or competing ligand from its target. For orientation: IC50 means the concentration at which inhibition is half-maximal.

In test [1] the target is T1, endogenous human UII receptor (Homo sapiens, UniProt Q9UKP6).
T1 sequence (Q9UKP6 1-389): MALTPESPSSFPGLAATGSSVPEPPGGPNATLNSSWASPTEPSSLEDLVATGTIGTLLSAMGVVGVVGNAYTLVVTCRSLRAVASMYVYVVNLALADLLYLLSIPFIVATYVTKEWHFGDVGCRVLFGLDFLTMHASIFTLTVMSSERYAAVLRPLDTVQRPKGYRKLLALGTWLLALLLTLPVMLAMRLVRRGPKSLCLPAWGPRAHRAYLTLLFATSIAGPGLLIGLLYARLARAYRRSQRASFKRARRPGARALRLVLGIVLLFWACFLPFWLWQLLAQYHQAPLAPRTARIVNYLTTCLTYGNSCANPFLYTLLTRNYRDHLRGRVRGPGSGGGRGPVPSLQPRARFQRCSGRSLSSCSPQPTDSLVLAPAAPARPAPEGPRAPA
The test can be described thus: Human Radioligand Binding Assay ((^125I)-U-II binding to human skeletal muscle myoblasts).

Test [2] deals with T2, Human UII receptor, 6D9 human rhabdomyosarcoma cells (Homo sapiens, UniProt Q9UKP6).
T2 construct: 6D9: isolated by dilution subcloning of RMS13 cells, ATCC® Number: CRL-2061; host or cells: 6D9 human rhabdomyosarcoma cells (subclone of RMS13)
T2 sequence (Q9UKP6 1-389): T1 sequence (Q9UKP6 1-389)
The test can be described thus: Human UII Calcium Mobilization Assay. Particulars: average value, FLIPR TETRA, read-out: Human UII Ca^+ Mobilization Average IC50. It counts as cell-based. In outline: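 6D9 rhabdomyosarcoma cells loaded 45 min at 37° C with calcium dye (1.25 mM probenecid, 0.01% FBS, HBSS/20 mM HEPES). Antagonist and U-II agonist added at room temperature; FLIPR fluorescence read over 4 min; EC50/IC50 fitted. DMSO ≤0.1% final.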
(Calcium flux is commonly read through the fluorescence of an indicator in the cells.)

Test [3] concerns the target T3, rat GPR14 (U-II receptor) (Rattus norvegicus, UniProt P49684).
T3 construct: expressed in transfected cells
T3 sequence (P49684 1-386): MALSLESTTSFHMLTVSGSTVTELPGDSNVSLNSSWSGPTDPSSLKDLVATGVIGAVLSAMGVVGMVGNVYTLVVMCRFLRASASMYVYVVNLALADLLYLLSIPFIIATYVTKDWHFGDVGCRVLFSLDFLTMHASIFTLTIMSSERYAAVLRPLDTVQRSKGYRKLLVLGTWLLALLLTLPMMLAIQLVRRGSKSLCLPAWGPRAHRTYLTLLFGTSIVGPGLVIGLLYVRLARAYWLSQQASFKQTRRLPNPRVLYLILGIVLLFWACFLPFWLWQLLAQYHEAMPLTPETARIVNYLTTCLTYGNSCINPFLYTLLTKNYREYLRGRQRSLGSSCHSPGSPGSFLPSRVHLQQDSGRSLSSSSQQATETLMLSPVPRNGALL
The test can be described thus: Rat UII Calcium Mobilization FLIPR Assay. It counts as cell-based. As to conditions: average value for the compound tested; read-out: Rat UII FLIPR Average IC50. The method, boiled down: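 CHO cells stably expressing rat U-II receptor, seeded 24 h before assay, were loaded with FLIPR calcium dye in HBSS/20 mM HEPES/0.1% BSA/2.5 mM probenecid, pH 7.4, for 1 h at 37° C. Calcium mobilization then read by FLIPR at 23° C.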

[4] abbreviates: read-out: Human UII Average Binding Ki, average value, (^125I)-U-II binding to human skeletal muscle myoblasts (HSMM), 25° C., 3 h.

Like-named read-outs stand apart in the source and are kept apart here.

The compound `COc1ccc(C(CCCNS(=O)(=O)CS(C)(=O)=O)N2C(=O)c3cccc(N4CCN([C@H](C)c5ccccc5)CC4)c3C2=O)cc1OC` (stereo partly drawn) [Cpd 110, N-(4-(3,4-dimethoxy-phenyl)-4-{1,3-dioxo-4-[4-(1R)-(1-phenyl-ethyl)-piperazin-1-yl]-1,3-dihydro-isoindol-2-yl}-butyl)-C-methanesulfonyl-methanesulfonamide] showed a Ki in test [1] of 25 nM. Also, the IC50 was found to be 250 nM in test [2] and 19 nM in test [3].
`COc1ccc(C(CCCNS(=O)(=O)c2c(C)noc2C)N2C(=O)c3cccc(N4CCN([C@H](C)c5ccccc5)CC4)c3C2=O)cc1OC` (stereo partly drawn) [Cpd 112, 3,5-dimethyl-isoxazole-4-sulfonic acid (4-(3,4-dimethoxy-phenyl)-4-{1,3-dioxo-4-[4-(1R)-(1-phenyl-ethyl)-piperazin-1-yl]-1,3-dihydro-isoindol-2-yl}-butyl)-amide] returned a Ki in test [1] of 26 nM. Moreover, the IC50 worked out at 1400 nM in test [2] and 69 nM in test [3].
On the same counts, the results for `COc1ccc(C(CCCNS(=O)(=O)c2cn(C)c(C)n2)N2C(=O)c3cccc(N4CCN([C@H](C)c5ccccc5)CC4)c3C2=O)cc1OC` (stereo partly drawn) [Cpd 114, 1,2-dimethyl-1H-imidazole-4-sulfonic acid (4-(3,4-dimethoxy-phenyl)-4-{1,3-dioxo-4-[4-(1R)-(1-phenyl-ethyl)-piperazin-1-yl]-1,3-dihydro-isoindol-2-yl}-butyl)-amide] are 11 nM, 470 nM and 17 nM.
For `COc1ccc(C(CCCNS(=O)(=O)N(C)C)N2C(=O)c3cccc(N4CCN([C@H](C)c5ccccc5)CC4)c3C2=O)cc1OC` (stereo partly drawn) [Cpd 115, N′-[(4-(3,4-dimethoxy-phenyl)-4-{1,3-dioxo-4-[4-(1R)-(1-phenyl-ethyl)-piperazin-1-yl]-1,3-dihydro-isoindol-2-yl}-butyl)]-N,N-dimethyl-sulfamide] the same measures were 39 nM, 460 nM and 28 nM.
For `COc1ccc(C(CCCNS(=O)(=O)Cc2ccccc2)N2C(=O)c3cccc(N4CCN([C@H](C)c5ccccc5)CC4)c3C2=O)cc1OC` (stereo partly drawn) [Cpd 117, N-(4-(3,4-dimethoxy-phenyl)-4-{1,3-dioxo-4-[4-(1R)-(1-phenyl-ethyl)-piperazin-1-yl]-1,3-dihydro-isoindol-2-yl}-butyl)-C-phenyl-methanesulfonamide] the same measures were 32 nM, 700 nM and 58 nM.
For the compound `COc1ccc([C@@H](CCCNS(=O)(=O)c2cccs2)N2C(=O)c3cccc(N4CCN([C@H](C)c5ccccc5)CC4)c3C2=O)cc1OC` [Cpd 118, (R)-thiophene-2-sulfonic acid (4-(3,4-dimethoxy-phenyl)-4-{1,3-dioxo-4-[4-(1R)-(1-phenyl-ethyl)-piperazin-1-yl]-1,3-dihydro-isoindol-2-yl}-butyl)-amide], the inhibition constant (Ki) in test [1] (setting [4]) is 49 nM. The 50% inhibitory concentration (IC50) was 240 nM in test [2] and 29 nM in test [3].
On to `COc1ccc([C@H](CCCNS(=O)(=O)c2cccs2)N2C(=O)c3cccc(N4CCN([C@H](C)c5ccccc5)CC4)c3C2=O)cc1OC` [Cpd 119], for which the Ki in test [1] (setting [4]) is 120 nM. The half-maximal inhibitory concentration (IC50) worked out at 260 nM in test [2] and 69 nM in test [3].
The compound `COc1ccc(C(CCCNS(N)(=O)=O)N2C(=O)c3cccc(N4CCN([C@H](C)c5ccccc5)CC4)c3C2=O)cc1OC` (stereo partly drawn) [Cpd 122, N′-[(4-(3,4-dimethoxy-phenyl)-4-{1,3-dioxo-4-[4-(1R)-(1-phenyl-ethyl)-piperazin-1-yl]-1,3-dihydro-isoindol-2-yl}-butyl)]-sulfamide] returned an inhibition constant (Ki) in test [1] of 120 nM. The half-maximal inhibitory concentration (IC50) in test [2] is 500 nM; in test [3], 12 nM.
For `COc1ccc(CC(c2ccc(OC)c(OC)c2)N2C(=O)c3cccc(N4CCN([C@H](C)c5ccccc5)CC4)c3C2=O)cc1OC` (stereo partly drawn) [Cpd 123, 2-[1,2-bis-(3,4-dimethoxy-phenyl)-ethyl]-4-[4-(1R)-(1-phenyl-ethyl)-piperazin-1-yl]-isoindole-1,3-dione], the inhibition constant Ki in test [1] was 570 nM. Moreover, the IC50 in test [2] is 3100 nM; in test [3], 250 nM.
